Assay results taken from ChEMBL document CHEMBL5625252, “Synthesis of peptidomimetics as antibiotic adjuvants for combination with aztreonam to combat MDR Pseudomonas aeruginosa” (Eur J Med Chem, 2023).
In brackets after ≈: the same amount, converted by molar mass. Activity calls are given as the source filed them. No cut-off for these calls is given here.

What was measured:
Pseudomonas aeruginosa [1] = assay: Synergistic antibacterial activity against Pseudomonas aeruginosa 23-Y364 assessed as aztreonam MIC at 128 ug/ml incubated for 18 hrs by checkerboard method; assay type: functional; details: dose 128 µg/ml
Pseudomonas aeruginosa [2] = assay: Synergistic antibacterial activity against Pseudomonas aeruginosa 12-1 assessed as aztreonam MIC in CAMH broth medium supplemented with 20.99 to 21.09 mM Mg2+ by checkerboard assay; assay type: functional
Pseudomonas aeruginosa [3] = assay: Antibacterial activity against Pseudomonas aeruginosa 23-Y511 assessed as inhibition of bacterial growth incubated for 18 hrs by agar dilution method; assay type: functional
Pseudomonas aeruginosa [4] = assay: Antibacterial activity against Pseudomonas aeruginosa 13-17 assessed as inhibition of bacterial growth incubated for 18 hrs by agar dilution method; assay type: functional
Pseudomonas aeruginosa [5] = assay: Antibacterial activity against Pseudomonas aeruginosa 16-2 assessed as inhibition of bacterial growth incubated for 18 hrs by agar dilution method; assay type: functional
Pseudomonas aeruginosa [6] = assay: Synergistic antibacterial activity against Pseudomonas aeruginosa 13-3 assessed as aztreonam MIC at 128 ug/ml incubated for 18 hrs by checkerboard method; assay type: functional; details: dose 128 µg/ml
Pseudomonas aeruginosa [7] = assay: Antibacterial activity against Pseudomonas aeruginosa PAO1 infected in Galleria mellonella assessed as larvae survival rate at 100 mg/kg measured after 96 hrs post inoculation in presence of 50 mg/kg aztreonam; assay type: functional
Pseudomonas aeruginosa [8] = assay: Synergistic antibacterial activity against Pseudomonas aeruginosa 16-11 assessed as aztreonam MIC at 128 ug/ml incubated for 18 hrs by checkerboard method; assay type: functional; details: dose 128 µg/ml
Pseudomonas aeruginosa [9] = assay: Antibacterial activity against Pseudomonas aeruginosa 23-Y122 assessed as inhibition of bacterial growth incubated for 18 hrs by agar dilution method; assay type: functional
Pseudomonas aeruginosa [10] = assay: Synergistic antibacterial activity against Pseudomonas aeruginosa 13-17 assessed as aztreonam MIC at 128 ug/ml incubated for 18 hrs by checkerboard method; assay type: functional; details: dose 128 µg/ml
Pseudomonas aeruginosa [11] = assay: Synergistic antibacterial activity against Pseudomonas aeruginosa 13-35 assessed as aztreonam MIC in CAMH broth medium supplemented with 0.41 to 0.51 mM Mg2+ by checkerboard assay; assay type: functional
Pseudomonas aeruginosa [12] = assay: Antibacterial activity against Pseudomonas aeruginosa 23-Y372 assessed as inhibition of bacterial growth incubated for 18 hrs by agar dilution method; assay type: functional
Pseudomonas aeruginosa [13] = assay: Antibacterial activity against Pseudomonas aeruginosa PAO1 at 128 ug/ml measured upto 24 hrs by time-kill assay; assay type: functional, organism-based; details: dose 128.0 µg/ml
Pseudomonas aeruginosa [14] = assay: Synergistic antibacterial activity against Pseudomonas aeruginosa 16-11 assessed as aztreonam MIC in CAMH broth medium supplemented with 20.99 to 21.09 mM Mg2+ by checkerboard assay; assay type: functional
Pseudomonas aeruginosa [15] = assay: Synergistic antibacterial activity against Pseudomonas aeruginosa 21-8 assessed as aztreonam MIC at 128 ug/ml incubated for 18 hrs by checkerboard method; assay type: functional; details: dose 128 µg/ml
Pseudomonas aeruginosa [16] = assay: Antibacterial activity against Pseudomonas aeruginosa PAO1 infected in Galleria mellonella assessed as increase in larvae survival at 100 mg/kg measured after 96 hrs post inoculation in presence of 25 mg/kg aztreonam; assay type: functional
Pseudomonas aeruginosa [17] = assay: Antibacterial activity against Pseudomonas aeruginosa 16-2 assessed as decrease in log10 CFU at 128 ug/ml measured after 24 hrs in presence of aztreonam by time-kill assay; assay type: functional; details: dose 128 µg/ml
Pseudomonas aeruginosa [18] = assay: Synergistic antibacterial activity against Pseudomonas aeruginosa 23-Y417 assessed as aztreonam MIC at 128 ug/ml incubated for 18 hrs by checkerboard method; assay type: functional; details: dose 128 µg/ml
Pseudomonas aeruginosa [19] = assay: Antibacterial activity against Pseudomonas aeruginosa 19-55 assessed as inhibition of bacterial growth incubated for 18 hrs by agar dilution method; assay type: functional
Pseudomonas aeruginosa [20] = assay: Inhibition of Pseudomonas aeruginosa 26 MexAB-OprM assessed as accumulation of Hoechst […] at 64 ug/ml; details: dose 64.0 µg/ml
Pseudomonas aeruginosa [21] = assay: Antibacterial activity against Pseudomonas aeruginosa PAO1 assessed as inhibition of bacterial growth incubated for 18 hrs by agar dilution method; assay type: functional
Pseudomonas aeruginosa [22] = assay: Antibacterial activity against Pseudomonas aeruginosa PAO1 infected in Galleria mellonella assessed as increase in larvae survival at 100 mg/kg after 12 hrs of innoculation; assay type: functional, organism-based
Pseudomonas aeruginosa [23] = assay: Synergistic antibacterial activity against Pseudomonas aeruginosa 13-35 assessed as aztreonam MIC at 128 ug/ml incubated for 18 hrs by checkerboard method; assay type: functional; details: dose 128 µg/ml
Pseudomonas aeruginosa [24] = assay: Antibacterial activity against Pseudomonas aeruginosa 19-46 assessed as inhibition of bacterial growth incubated for 18 hrs by agar dilution method; assay type: functional
Pseudomonas aeruginosa [25] = assay: Antibacterial activity against Pseudomonas aeruginosa 13-3 assessed as inhibition of bacterial growth incubated for 18 hrs by agar dilution method; assay type: functional
Pseudomonas aeruginosa [26] = assay: Synergistic antibacterial activity against Pseudomonas aeruginosa 23-Y511 assessed as aztreonam MIC at 128 ug/ml incubated for 18 hrs by checkerboard method; assay type: functional; details: dose 128 µg/ml
Pseudomonas aeruginosa [27] = assay: Antibacterial activity against Pseudomonas aeruginosa PAO1 assessed as decrease in log10 CFU at 128 ug/ml measured after 24 hrs in presence of aztreonam by time-kill assay; assay type: functional; details: dose 128 µg/ml

**Q.** Which results are given for NCCC[C@H](NC(=O)C[C@@H](N)Cc1ccccc1)C(=O)Nc1ccc2ccccc2c1?
**A.** MIC (Pseudomonas aeruginosa [1]): 8 µg/mL; MIC (Pseudomonas aeruginosa [2]): 64 µg/mL; MIC (Pseudomonas aeruginosa [3]): 256 µg/mL (≈ 612 µM); MIC (Pseudomonas aeruginosa [4]): 512 µg/mL (≈ 1220 µM); MIC (Pseudomonas aeruginosa [5]): 513 µg/mL (≈ 1230 µM); MIC (Pseudomonas aeruginosa [6]): 8 µg/mL; Activity (Pseudomonas aeruginosa [7]): 80%; MIC (Pseudomonas aeruginosa [8]): 2 µg/mL; MIC (Pseudomonas aeruginosa [9]): 512 µg/mL (≈ 1220 µM); MIC (Pseudomonas aeruginosa [10]): 4 µg/mL; MIC (Pseudomonas aeruginosa [11]): 4 µg/mL; MIC (Pseudomonas aeruginosa [12]): 512 µg/mL (≈ 1220 µM); Activity (Pseudomonas aeruginosa [13]): inactive; MIC (Pseudomonas aeruginosa [14]): 8 µg/mL; MIC (Pseudomonas aeruginosa [15]): 2 µg/mL; Activity (Pseudomonas aeruginosa [16]): 40%; Activity (Pseudomonas aeruginosa [17]): >2 log10CFU/ml; MIC (Pseudomonas aeruginosa [18]): 8 µg/mL; MIC (Pseudomonas aeruginosa [19]): 512 µg/mL (≈ 1220 µM); inhibition (Pseudomonas aeruginosa [20]): Active; MIC (Pseudomonas aeruginosa [21]): 512 µg/mL (≈ 1220 µM); Activity (Pseudomonas aeruginosa [22]): inactive; MIC (Pseudomonas aeruginosa [23]): 4 µg/mL; MIC (Pseudomonas aeruginosa [24]): 512 µg/mL (≈ 1220 µM); MIC (Pseudomonas aeruginosa [25]): 512 µg/mL (≈ 1220 µM); MIC (Pseudomonas aeruginosa [26]): 16 µg/mL; Activity (Pseudomonas aeruginosa [27]): >2 log10CFU/ml
